Test results taken from US8691187B2, “Imaging agents for detecting neurological disorders” (Eli Lilly and Company, priority 2009, dated 2014).

Key:
AD brain sections = test: Fluorescent compound staining on human AD brain sections (self-fluorescence, overall binding); settings: for binding of fluorescent compound to AD brain sections confirmed by immunostaining with tau or Aβ antibodies: figure legends, double labeling at 100 uM; for Brain Section Staining: fluorescence: Table 1 quinolines, 100 uM compound
Excerpt: (§1) Native forms of tau (various isoforms, hyperphosphorylated) and amyloid aggregates are present in brain sections and therefore preferred for compound testing. Using the self-fluorescence of a test compound can give an indication of whether the compound binds to tau tangles/PHFs and/or amyloid plaques. This is further confirmed by immunostaining with Aβ and tau antibodies and overlaying the images. […] However, it is possible to “rate” the signal strength qualitatively and distinguish compounds that show binding to these aggregates.
(§2) In one of the embodiments of the present invention, the self-fluorescence of the compound of formula (I) is used to determine whether the compound binds to tau/amyloid in the brain sections and to give it a qualitative rating. The next step is to proceed to the autoradiography using different brain types for further evaluation and quantitation.
(§3) Tau fluorescent compounds staining on human brain sections (Double or triple labeled with tau and β-amyloid Immunohistochemistry (IHC))
(§4) Serial sections (6 μm thick) from OCT-embedded frozen blocks of front lobe were used for staining (OCT—optimal cutting temperature). After fixation and quenching of autofluorescence, tissue sections were incubated with in 100 μM of tau compound in 50% ethanol PBS for 60 min. Then sections were dipped briefly into water, rinsed in PBS, blocked with 5% normal horse serum in PBS for 1 hour at room temperature. After blocking, the tissue was incubated with tau or β-amyloid primary antibody at 4° C. overnight in a humid chamber. Next day, the sections were washed with PBS and then incubated with secondary antibody for 1 hour.

tau aggregates = test: Fluorescent compound staining on human AD brain sections (tau IHC double labeling); type: binding; settings: 100 uM compound, qualitative rating + to ++++ or words
Excerpt: as §1, §2, §3, §4

Aβ plaques = biological target: T1, Aβ plaques (Homo sapiens, UniProt P05067); test: Fluorescent compound staining on human AD brain sections (β-amyloid IHC double labeling); type: binding; settings: 100 uM compound, qualitative rating + to ++++ or words
T1 construct: Native forms of tau (various isoforms, hyperphosphorylated) and amyloid aggregates are present in brain sections; from tissue; host or cells: human AD brain, frozen frontal lobe sections
T1 sequence (P05067 672-713 limits assumed): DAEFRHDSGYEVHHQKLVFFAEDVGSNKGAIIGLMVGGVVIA
Excerpt: as §1, §2, §3, §4

Question: `Nc1ccc(-c2ccnc3nc4ccccc4n23)cc1` [Compound T520, 4-(Benzo[4,5]imidazo[1,2-a]pyrimidin-4-yl)aniline] was tested. Which “binding of fluorescent compound to AD brain sections confirmed by immunostaining with tau or Aβ antibodies” value (shortened to “binding of fluorescent compound”) (AD brain sections) did it give?
Answer: Its value is “binding”.

Question: Which “Brain Section Staining: tau” value (tau aggregates; Table 1 quinolines) does the source give for `Nc1ccc(-c2ccc3ccccc3n2)cc1F` [Compound T445, 2-Fluoro-4-(quinolin-2-yl) aniline] here?
Answer: Its value is “binds to Tau”.

Question: For `COc1ccc2nc(-c3ccc(N(C)C)cc3)ccc2c1` [Compound T139, 4-(6-Methoxyquinolin-2-yl)-N,N-dimethylaniline], which “Brain Section Staining: tau” value (tau aggregates; Table 1 quinolines) is on record?
Answer: The value was “binds to amyloid and Tau”.

Question: What about the “Brain Section Staining: Ab (amyloid)” value (Aβ plaques; Table 1 quinolines) of the same compound?
Answer: Its value is “binds to amyloid and Tau”.

Question: `CNc1ccc(C#Cc2nc3ccc(O)cc3s2)cc1F` [T118/ W366, 2-((3-fluoro-4-(methylamino)phenyl)ethynyl)benzo[d]thiazol-6-ol] was tested. Which “Brain Section Staining: Ab (amyloid)” value (Aβ plaques; Table 2 acetylenes) did it give?
Answer: The value was “binds to Ab”.

Question: How did the “Brain Section Staining: Ab (amyloid)” value (Aβ plaques; Table 1 quinolines) turn out when `CNc1ccc(-c2ccc3cc(OCCF)ccc3n2)cc1.Cl.Cl` [Compound T409] was run?
Answer: Its value is “binds to amyloid”.

Question: For `[N-]=[N+]=NCCOCCOCCNc1ccc(-c2ccc3ccccc3n2)cc1` [Compound T412], which “Brain Section Staining: tau” value (tau aggregates; Table 1 quinolines) is on record?
Answer: Its value is “binds to tau”.

Question: What about the “Brain Section Staining: Ab (amyloid)” value (Aβ plaques; Table 1 quinolines) of the same compound?
Answer: The value was “not to amyloid”.

Question: For `CNc1ccc(C#Cc2nc3ccccc3n2CCOCCOCCF)cc1.O=C(O)C(F)(F)F` [Compound T541], which “binding of fluorescent compound” value (AD brain sections) is on record?
Answer: The value was “binding”.

Question: With `CN(C)c1ccc(/C=C/c2cnc3ccccc3n2)cc1` [Compound T475] as the compound, how does the “Brain Section Staining: Ab (amyloid)” value (Aβ plaques; Table 1 quinolines) read?
Answer: The value was “binds to Ab mostly”.

Question: How did the “binding of fluorescent compound” value (AD brain sections) turn out when `COc1ccc2nc(-c3ccc(N4CCN(CCCF)CC4)cc3)ccc2c1` [Compound T499, 2-(4-(4-(3-Fluoropropyl)piperazin-1-yl)phenyl)-6-methoxyquinoline] was run?
Answer: Its value is “binding”.

Question: How did the “Brain Section Staining: Ab (amyloid)” value (Aβ plaques; Table 1 quinolines) turn out when `CNc1ccc(-c2cnc3ccccc3c2)cc1` [Compound T477, N-Methyl-4-(quinolin-3-yl)aniline] was run?
Answer: Its value is “binds to Ab mostly”.

Question: What does the source list for `COc1ccc2nc(-c3ccc(N)c(F)c3)ccc2c1` [Compound T467, 2-Fluoro-4-(6-methoxyquinolin-2-yl)aniline]?
Answer: Brain Section Staining: tau (tau aggregates; Table 1 quinolines): binds to tau and amyloid; Brain Section Staining: Ab (amyloid) (Aβ plaques; Table 1 quinolines): binds to tau and amyloid

Question: With `FCCCNc1ccc(C#Cc2ccc3ccccc3n2)cc1` [Compound T454, N-(3-Fluoropropyl)-4-(quinolin-2-ylethynyl)aniline] as the compound, how does the “Brain Section Staining: Ab (amyloid)” value (Aβ plaques; Table 1 quinolines) read?
Answer: The value was “binds to Ab”.

Question: And the “Brain Section Staining: Ab (amyloid)” value (Aβ plaques; Table 2 acetylenes)?
Answer: Its value is “binds to Ab”.

Question: For `CN(C)c1ccc(/C=C/c2ccc3cc(F)ccc3n2)cc1` [Compound T429], which “Brain Section Staining: Ab (amyloid)” value (Aβ plaques; Table 1 quinolines) is on record?
Answer: The value was “binds to Ab”.

Question: How did the “Brain Section Staining: tau” value (tau aggregates; Table 1 quinolines) turn out when `CNc1ccc(-c2cc(F)c3ccccc3n2)cc1` [Compound T466, 4-(4-fluoroquinolin-2-yl)-N-methylaniline] was run?
Answer: The value was “binds to tau and amyloid”.

Question: And the “Brain Section Staining: Ab (amyloid)” value (Aβ plaques; Table 1 quinolines)?
Answer: Its value is “binds to tau and amyloid”.

Question: For `Fc1ccc(C#Cc2ccc3scnc3c2)cn1` [T114/ W313], which “Brain Section Staining: tau” value (tau aggregates; Table 2 acetylenes) is on record?
Answer: The value was “stains amyloid and tau”.

Question: What about the “Brain Section Staining: Ab (amyloid)” value (Aβ plaques; Table 2 acetylenes) of the same compound?
Answer: Its value is “stains amyloid and tau”.

Question: With `FCCCNc1ccc(-c2ccnc3nc4ccccc4n23)cc1` [Compound T544, 4-(Benzo[4,5]imidazo[1,2-a]pyrimidin-4-yl)-N-(3-fluoropropyl)aniline] as the compound, how does the “binding of fluorescent compound” value (AD brain sections) read?
Answer: Its value is “binding”.

Question: For `CNc1ccc(-c2ccc3ccccc3n2)cc1F` [Compound T458], which “Brain Section Staining: tau” value (tau aggregates; Table 1 quinolines) is on record?
Answer: Its value is “binds to amyloid and tau”.

Question: And the “Brain Section Staining: Ab (amyloid)” value (Aβ plaques; Table 1 quinolines)?
Answer: Its value is “binds to amyloid and tau”.

Question: With `CN(C)CCNc1cc(-c2ccccc2)nc2ccccc12` [Compound T048] as the compound, how does the “Brain Section Staining: Ab (amyloid)” value (Aβ plaques; Table 1 quinolines) read?
Answer: The value was “binds to Ab (amyloid) (100 uM)”.

Question: `FCCn1c(C#Cc2ccc3ccccc3n2)nc2ccccc21.O=C(O)C(F)(F)F` [Compound T496] was tested. Which “Brain Section Staining: Ab (amyloid)” value (Aβ plaques; Table 2 acetylenes) did it give?
Answer: The value was “Weakly binds to Ab”.

Question: Which “binding of fluorescent compound” value (AD brain sections) does the source give for `FCCCNc1ccc(-c2ccn3c(n2)nc2ccccc23)cc1` [Compound T542, 4-(Benzo[4,5]imidazo[1,2-a]pyrimidin-2-yl)-N-(3-fluoropropyl)aniline] here?
Answer: Its value is “binding”.

Question: `FCCCNc1ccc(C#Cc2nc3ccccc3[nH]2)cc1` [Compound T465, 4-((1H-Benzo[d]imidazol-2-yl)ethynyl)-N-(3-fluoropropyl)aniline] was tested. Which “Brain Section Staining: tau” value (tau aggregates; Table 2 acetylenes) did it give?
Answer: The value was “binds to tau and Ab”.

Question: And the “Brain Section Staining: Ab (amyloid)” value (Aβ plaques; Table 2 acetylenes)?
Answer: Its value is “binds to tau and Ab”.

Question: How did the “Brain Section Staining: fluorescence” value (AD brain sections) turn out when `CNc1ccc(-c2cc3ccccc3cn2)cc1.Cl` [Compound T501, 4-(Isoquinolin-3-yl)-N-methylaniline] was run?
Answer: Its value is “No fluorescence”.

Question: With `FCCOCCOCCOc1ccc2nc(-c3ccc(N4CCOCC4)cc3)ccc2c1` [Compound T549, 4-(4-(6-(2-(2-(2-Fluoroethoxy)ethoxy)ethoxy)quinolin-2-yl)phenyl)morpholine] as the compound, how does the “Brain Section Staining: tau” value (tau aggregates; Table 1 quinolines) read?
Answer: Its value is “Binds to Tau”.

Question: `CNc1ccc(C#Cc2nc3cc(OC)ccc3s2)cc1F` [Compound T448] was tested. Which “Brain Section Staining: Ab (amyloid)” value (Aβ plaques; Table 2 acetylenes) did it give?
Answer: Its value is “binds to Ab”.

Question: Which results are given for `Cl.Cl.FCCNc1ccc(-c2ccc3ccccc3n2)cc1` [Compound T411, N-(2-Fluoroethyl)-4-(quinolin-2-yl)aniline dihydrochloride]?
Answer: Brain Section Staining: tau (tau aggregates; Table 1 quinolines): binds to tau; Brain Section Staining: Ab (amyloid) (Aβ plaques; Table 1 quinolines): weakly binds to Ab

Question: `FCCOCCOCCNc1ccc(-c2ccc3ccccc3n2)cn1` [Compound T525, N-(2-(2-(2-Fluoroethoxy)ethoxy)ethyl)-5-(quinolin-2-yl)pyridin-2-amine] was tested. Which “binding of fluorescent compound” value (AD brain sections) did it give?
Answer: The value was “binding”.

Question: With `Fc1ccc(-c2ccc3ccccc3n2)cn1` [Compound T455, 2-(6-Fluoropyridin-3-yl)quinoline] as the compound, how does the “Brain Section Staining: fluorescence” value (AD brain sections) read?
Answer: Its value is “No fluorescence”.

Question: Which “Brain Section Staining: tau” value (tau aggregates; Table 1 quinolines) does the source give for `CNc1ccc(-c2ccc3cc(OC)ccc3n2)cc1F.Cl.Cl` [Compound T483, 2-Fluoro-4-(6-methoxyquinolin-2-yl)-N-methylaniline dihydrochloride] here?
Answer: Its value is “Mostly binds to Tau”.

Question: How did the “binding of fluorescent compound” value (AD brain sections) turn out when `Cn1c(C#Cc2ccc(NCCCF)cc2)nc2ccccc21` [Compound T540, N-(3-Fluoropropyl)-4-((1-methyl-1H-benzo[d]imidazol-2-yl)ethynyl)aniline] was run?
Answer: Its value is “binding”.

Question: How did the “Brain Section Staining: tau” value (tau aggregates; Table 1 quinolines) turn out when `CN(C)c1ccc(-c2ccc3ccccc3n2)cn1` [Compound T125, N,N-Dimethyl-5-(quinolin-2-yl)pyridin-2-amine] was run?
Answer: Its value is “staining shows strong binding to tau”.

Question: Which “Brain Section Staining: tau” value (tau aggregates; Table 1 quinolines) does the source give for `CN(C)c1ccc(-c2cc(F)c3ccccc3n2)cc1` [Compound T484, 4-(4-Fluoroquinolin-2-yl)-N—N-dimethylaniline] here?
Answer: The value was “binds to Tau”.

Question: And the “Brain Section Staining: Ab (amyloid)” value (Aβ plaques; Table 1 quinolines)?
Answer: Its value is “binds to Tau and Ab”.

Question: With `CN(C)c1ccc(-c2ccc3cc(O)ccc3n2)cc1` [Compound T531] as the compound, how does the “Brain Section Staining: tau” value (tau aggregates; Table 1 quinolines) read?
Answer: The value was “Binds to Tau”.

Question: For `FCCOCCOCCNc1ccc(-c2ccc3ccccc3n2)cc1` [Compound T442], which “Brain Section Staining: tau” value (tau aggregates; Table 1 quinolines) is on record?
Answer: Its value is “binds to Tau and Ab”.

Question: And the “Brain Section Staining: Ab (amyloid)” value (Aβ plaques; Table 1 quinolines)?
Answer: Its value is “binds to Tau and Ab”.

Question: With `Cn1ccc2cc(-c3ccc4ccccc4n3)ccc21` [Compound T453, 2-(1-Methyl-1H-indol-5-yl)quinoline] as the compound, how does the “Brain Section Staining: Ab (amyloid)” value (Aβ plaques; Table 1 quinolines) read?
Answer: The value was “binds to Ab”.

Question: With `CN1CCN(c2ccc(-c3ccc4cc(OCCOCCOCCF)ccc4n3)cc2)CC1` [Compound T550, 6-(2-(2-(2-Fluoroethoxy)ethoxy)ethoxy)-2-(4-(4-methylpiperazin-1-yl)phenyl)quinoline] as the compound, how does the “Brain Section Staining: tau” value (tau aggregates; Table 1 quinolines) read?
Answer: The value was “Binds to Tau”.

Question: `Cn1cnc2ccc(-c3cc(F)c4ccccc4n3)cc21` [Compound T485, 4-Fluoro-2-(1-methyl-1H-benzo[d]imidazol-6-yl)quinoline 2,2,2-trifluoroacetate] was tested. Which “Brain Section Staining: Ab (amyloid)” value (Aβ plaques; Table 1 quinolines) did it give?
Answer: The value was “weakly binds to Ab”.
